Experimental data as given in publication PMC8800111 (The Journal of Biological Chemistry, 2021).

How the values were obtained:
Assay type in all cases: cell-based
[1] = biological target: proteins of U3A human fibrosarcoma cells (4462 proteins detected) (Homo sapiens, UniProt Q8NBJ4); settings: protein GOLM1; U3A, 10 μM, 2 h
[2] = biological target: proteins of U3A human fibrosarcoma cells (4462 proteins detected) (Homo sapiens, UniProt Q6P1L8); settings: protein MRPL14, U3A cells
[3] = biological target: proteins of U3A human fibrosarcoma cells (4462 proteins detected) (Homo sapiens, UniProt P04920); settings: protein SLC4A2; U3A cells
[4] = biological target: proteins of U3A human fibrosarcoma cells (4462 proteins detected) (Homo sapiens, UniProt O94880); settings: protein PHF14; U3A, 10 μM, 2 h
[5] = biological target: proteins of U3A human fibrosarcoma cells (4462 proteins detected) (Homo sapiens, UniProt Q4VC31); settings: protein CCDC58; U3A cells
proteins of U3A human fibrosarcoma cells (4462 proteins detected) (Homo sapiens, UniProt Q4VC31), sequence (Q4VC31 whole entry): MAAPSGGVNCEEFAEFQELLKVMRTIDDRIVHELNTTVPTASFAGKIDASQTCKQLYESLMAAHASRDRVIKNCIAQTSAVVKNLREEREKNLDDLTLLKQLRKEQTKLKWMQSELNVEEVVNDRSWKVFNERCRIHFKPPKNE

[6] = biological target: proteins of U3A human fibrosarcoma cells (4462 proteins detected) (Homo sapiens, UniProt Q96EQ0); settings: protein SGTB, U3A cells
[7] = biological target: proteins of U3A human fibrosarcoma cells (4462 proteins detected) (Homo sapiens, UniProt Q9Y5P4); settings: protein COL4A3BP; soluble abundance after heat, U3A cells
[8] = biological target: proteins of U3A human fibrosarcoma cells (4462 proteins detected) (Homo sapiens, UniProt Q9H6E4); settings: protein CCDC134; U3A, 10 μM, 2 h
proteins of U3A human fibrosarcoma cells (4462 proteins detected) (Homo sapiens, UniProt Q9H6E4), sequence (Q9H6E4 23-229): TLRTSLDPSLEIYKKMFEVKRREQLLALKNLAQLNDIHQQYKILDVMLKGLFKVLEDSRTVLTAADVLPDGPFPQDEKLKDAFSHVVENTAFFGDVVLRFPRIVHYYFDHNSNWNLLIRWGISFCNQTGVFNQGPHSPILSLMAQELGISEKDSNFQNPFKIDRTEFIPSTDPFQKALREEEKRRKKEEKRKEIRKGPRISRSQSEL

[9] = biological target: proteins of U3A human fibrosarcoma cells (4462 proteins detected) (Homo sapiens, UniProt Q9Y2Q3); settings: protein GSTK1; U3A cells
[10] = biological target: proteins of U3A human fibrosarcoma cells (4462 proteins detected) (Homo sapiens, UniProt Q8IYB5); settings: protein SMAP1; soluble abundance after heat, U3A cells
[11] = biological target: proteins of U3A human fibrosarcoma cells (4462 proteins detected) (Homo sapiens, UniProt Q9H3H3); settings: protein C11orf68; soluble abundance after heat, U3A cells
[12] = biological target: proteins of U3A human fibrosarcoma cells (4462 proteins detected) (Homo sapiens, UniProt P62487); settings: protein POLR2G; U3A cells
[13] = biological target: proteins of U3A human fibrosarcoma cells (4462 proteins detected) (Homo sapiens, UniProt P08670); settings: protein VIM; U3A cells
[14] = biological target: proteins of U3A human fibrosarcoma cells (4462 proteins detected) (Homo sapiens, UniProt Q9UN37); settings: protein VPS4A; U3A cells
[15] = biological target: proteins of U3A human fibrosarcoma cells (4462 proteins detected) (Homo sapiens, UniProt Q9Y6E0); settings: protein STK24; soluble abundance after heat, U3A cells
[16] = biological target: proteins of U3A human fibrosarcoma cells (4462 proteins detected) (Homo sapiens, UniProt Q8N9N2); settings: protein ASCC1; U3A cells
[17] = biological target: proteins of U3A human fibrosarcoma cells (4462 proteins detected) (Homo sapiens, UniProt P06748); settings: protein NPM1; U3A cells
[18] = biological target: proteins of U3A human fibrosarcoma cells (4462 proteins detected) (Homo sapiens, UniProt Q8NFF5); settings: protein FLAD1; U3A cells
proteins of U3A human fibrosarcoma cells (4462 proteins detected) (Homo sapiens, UniProt Q8NFF5), sequence (Q8NFF5 18-587): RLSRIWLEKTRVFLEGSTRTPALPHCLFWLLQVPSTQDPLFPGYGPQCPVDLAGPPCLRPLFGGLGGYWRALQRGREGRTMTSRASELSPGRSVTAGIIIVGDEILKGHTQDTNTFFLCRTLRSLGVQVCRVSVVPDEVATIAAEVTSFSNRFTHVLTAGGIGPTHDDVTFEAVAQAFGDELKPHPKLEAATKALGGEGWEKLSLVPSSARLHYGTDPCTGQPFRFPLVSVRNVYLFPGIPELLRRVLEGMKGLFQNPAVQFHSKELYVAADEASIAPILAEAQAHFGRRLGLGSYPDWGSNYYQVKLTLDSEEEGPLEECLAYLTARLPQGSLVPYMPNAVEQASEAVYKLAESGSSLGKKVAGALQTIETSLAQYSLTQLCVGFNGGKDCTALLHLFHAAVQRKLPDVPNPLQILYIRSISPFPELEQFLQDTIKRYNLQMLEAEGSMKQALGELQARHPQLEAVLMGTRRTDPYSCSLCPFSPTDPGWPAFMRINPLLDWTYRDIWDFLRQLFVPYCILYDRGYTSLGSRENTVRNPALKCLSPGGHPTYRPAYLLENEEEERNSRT

[19] = biological target: proteins of U3A human fibrosarcoma cells (4462 proteins detected) (Homo sapiens, UniProt Q8TEP8); settings: protein CEP192; U3A, 10 μM, 2 h
proteins of U3A human fibrosarcoma cells (4462 proteins detected) (Homo sapiens, UniProt Q8TEP8), sequence (Q8TEP8 whole entry): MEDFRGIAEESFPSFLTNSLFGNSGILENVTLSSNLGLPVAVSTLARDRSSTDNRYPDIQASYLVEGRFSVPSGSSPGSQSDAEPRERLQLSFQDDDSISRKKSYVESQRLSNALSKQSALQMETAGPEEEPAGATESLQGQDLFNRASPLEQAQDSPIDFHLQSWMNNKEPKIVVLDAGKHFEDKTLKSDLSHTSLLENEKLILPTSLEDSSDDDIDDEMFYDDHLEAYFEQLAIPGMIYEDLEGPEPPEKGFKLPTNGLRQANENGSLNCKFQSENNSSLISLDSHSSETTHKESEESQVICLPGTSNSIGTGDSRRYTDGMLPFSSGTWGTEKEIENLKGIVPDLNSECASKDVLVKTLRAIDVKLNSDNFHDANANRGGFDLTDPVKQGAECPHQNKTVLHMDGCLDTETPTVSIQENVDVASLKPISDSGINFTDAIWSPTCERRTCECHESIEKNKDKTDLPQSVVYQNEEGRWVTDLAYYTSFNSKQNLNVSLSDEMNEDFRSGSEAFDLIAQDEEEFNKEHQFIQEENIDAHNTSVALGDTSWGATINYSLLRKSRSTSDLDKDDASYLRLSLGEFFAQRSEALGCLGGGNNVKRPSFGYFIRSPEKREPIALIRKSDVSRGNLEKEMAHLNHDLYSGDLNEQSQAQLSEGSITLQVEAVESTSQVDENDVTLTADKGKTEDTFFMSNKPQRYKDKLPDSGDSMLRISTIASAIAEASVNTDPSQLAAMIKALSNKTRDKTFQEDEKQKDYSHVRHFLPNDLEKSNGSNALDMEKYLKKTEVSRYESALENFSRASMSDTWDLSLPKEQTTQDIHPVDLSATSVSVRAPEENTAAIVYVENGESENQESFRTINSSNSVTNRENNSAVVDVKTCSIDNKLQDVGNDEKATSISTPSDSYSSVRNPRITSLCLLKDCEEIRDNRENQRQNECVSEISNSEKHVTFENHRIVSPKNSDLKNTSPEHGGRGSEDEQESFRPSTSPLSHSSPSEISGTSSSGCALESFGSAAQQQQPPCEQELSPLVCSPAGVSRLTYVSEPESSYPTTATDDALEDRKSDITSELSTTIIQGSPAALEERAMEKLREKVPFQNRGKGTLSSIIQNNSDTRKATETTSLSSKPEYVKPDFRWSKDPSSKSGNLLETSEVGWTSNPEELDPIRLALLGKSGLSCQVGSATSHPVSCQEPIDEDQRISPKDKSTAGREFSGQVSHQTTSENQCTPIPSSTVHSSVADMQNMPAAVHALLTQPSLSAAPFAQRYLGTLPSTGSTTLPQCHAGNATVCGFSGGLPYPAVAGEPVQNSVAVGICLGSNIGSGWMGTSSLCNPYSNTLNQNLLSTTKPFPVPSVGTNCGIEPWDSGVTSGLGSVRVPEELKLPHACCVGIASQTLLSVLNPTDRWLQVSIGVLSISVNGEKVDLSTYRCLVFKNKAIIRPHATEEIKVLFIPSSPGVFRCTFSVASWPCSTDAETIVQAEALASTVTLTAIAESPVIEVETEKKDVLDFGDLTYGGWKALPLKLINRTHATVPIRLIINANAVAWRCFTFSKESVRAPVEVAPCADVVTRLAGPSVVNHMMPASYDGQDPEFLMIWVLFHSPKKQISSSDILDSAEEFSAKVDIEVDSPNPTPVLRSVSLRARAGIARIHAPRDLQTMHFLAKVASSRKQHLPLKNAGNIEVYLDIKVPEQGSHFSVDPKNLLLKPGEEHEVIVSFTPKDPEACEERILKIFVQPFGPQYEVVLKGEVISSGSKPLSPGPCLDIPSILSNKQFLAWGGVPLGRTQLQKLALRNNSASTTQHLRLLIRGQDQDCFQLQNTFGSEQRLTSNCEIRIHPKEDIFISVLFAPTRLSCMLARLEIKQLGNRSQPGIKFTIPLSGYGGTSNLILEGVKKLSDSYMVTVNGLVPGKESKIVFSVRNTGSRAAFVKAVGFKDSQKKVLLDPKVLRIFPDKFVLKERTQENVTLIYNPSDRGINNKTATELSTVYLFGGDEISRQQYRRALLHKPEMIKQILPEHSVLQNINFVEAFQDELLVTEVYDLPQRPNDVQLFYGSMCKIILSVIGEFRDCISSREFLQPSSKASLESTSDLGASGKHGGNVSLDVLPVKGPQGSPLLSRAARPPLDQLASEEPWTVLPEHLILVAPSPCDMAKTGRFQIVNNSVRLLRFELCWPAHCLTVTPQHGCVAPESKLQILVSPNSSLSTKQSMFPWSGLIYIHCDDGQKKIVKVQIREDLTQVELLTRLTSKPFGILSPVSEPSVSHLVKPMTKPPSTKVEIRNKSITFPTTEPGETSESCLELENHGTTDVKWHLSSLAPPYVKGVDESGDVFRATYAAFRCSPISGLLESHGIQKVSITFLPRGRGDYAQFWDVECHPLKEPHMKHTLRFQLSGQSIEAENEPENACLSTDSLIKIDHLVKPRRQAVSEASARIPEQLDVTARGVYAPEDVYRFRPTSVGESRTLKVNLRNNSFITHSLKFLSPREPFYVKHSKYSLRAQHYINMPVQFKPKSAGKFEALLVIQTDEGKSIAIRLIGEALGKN

[20] = biological target: proteins of U3A human fibrosarcoma cells (4462 proteins detected) (Homo sapiens, UniProt P13861); settings: protein PRKAR2A; soluble abundance after heat, U3A cells
proteins of U3A human fibrosarcoma cells (4462 proteins detected) (Homo sapiens, UniProt P13861), sequence (P13861 whole entry): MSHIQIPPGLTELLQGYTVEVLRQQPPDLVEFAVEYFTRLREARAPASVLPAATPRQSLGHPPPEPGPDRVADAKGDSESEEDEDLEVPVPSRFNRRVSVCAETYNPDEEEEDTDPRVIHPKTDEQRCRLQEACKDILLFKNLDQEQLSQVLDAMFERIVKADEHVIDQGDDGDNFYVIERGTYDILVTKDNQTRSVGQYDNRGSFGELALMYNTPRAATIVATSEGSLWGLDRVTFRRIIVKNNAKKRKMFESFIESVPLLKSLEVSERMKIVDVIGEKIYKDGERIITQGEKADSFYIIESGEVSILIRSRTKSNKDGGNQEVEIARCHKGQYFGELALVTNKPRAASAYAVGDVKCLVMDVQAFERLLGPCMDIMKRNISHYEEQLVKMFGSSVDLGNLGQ

[21] = biological target: proteins of U3A human fibrosarcoma cells (4462 proteins detected) (Homo sapiens, UniProt Q9BUL5); settings: protein PHF23, U3A cells
proteins of U3A human fibrosarcoma cells (4462 proteins detected) (Homo sapiens, UniProt Q9BUL5), sequence (Q9BUL5 whole entry): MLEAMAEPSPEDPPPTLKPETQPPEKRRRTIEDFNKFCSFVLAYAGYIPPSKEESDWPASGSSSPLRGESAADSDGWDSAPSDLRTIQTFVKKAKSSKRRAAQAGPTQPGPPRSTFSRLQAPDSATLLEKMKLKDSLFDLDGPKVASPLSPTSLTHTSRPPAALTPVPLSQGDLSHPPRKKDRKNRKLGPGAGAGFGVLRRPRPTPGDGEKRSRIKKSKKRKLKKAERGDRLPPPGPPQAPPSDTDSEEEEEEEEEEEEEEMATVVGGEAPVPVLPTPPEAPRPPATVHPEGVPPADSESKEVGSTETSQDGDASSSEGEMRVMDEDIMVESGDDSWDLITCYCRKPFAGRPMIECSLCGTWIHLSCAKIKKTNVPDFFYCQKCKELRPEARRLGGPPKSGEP

[22] = biological target: proteins of U3A human fibrosarcoma cells (4462 proteins detected) (Homo sapiens, UniProt P57768); settings: protein SNX16; U3A, 10 μM, 2 h
[23] = biological target: proteins of U3A human fibrosarcoma cells (4462 proteins detected) (Homo sapiens, UniProt Q9UKV5); settings: protein AMFR; U3A cells
[24] = biological target: proteins of U3A human fibrosarcoma cells (4462 proteins detected) (Homo sapiens, UniProt Q8TD30); settings: protein GPT2; U3A cells
proteins of U3A human fibrosarcoma cells (4462 proteins detected) (Homo sapiens, UniProt Q8TD30), sequence (Q8TD30 whole entry): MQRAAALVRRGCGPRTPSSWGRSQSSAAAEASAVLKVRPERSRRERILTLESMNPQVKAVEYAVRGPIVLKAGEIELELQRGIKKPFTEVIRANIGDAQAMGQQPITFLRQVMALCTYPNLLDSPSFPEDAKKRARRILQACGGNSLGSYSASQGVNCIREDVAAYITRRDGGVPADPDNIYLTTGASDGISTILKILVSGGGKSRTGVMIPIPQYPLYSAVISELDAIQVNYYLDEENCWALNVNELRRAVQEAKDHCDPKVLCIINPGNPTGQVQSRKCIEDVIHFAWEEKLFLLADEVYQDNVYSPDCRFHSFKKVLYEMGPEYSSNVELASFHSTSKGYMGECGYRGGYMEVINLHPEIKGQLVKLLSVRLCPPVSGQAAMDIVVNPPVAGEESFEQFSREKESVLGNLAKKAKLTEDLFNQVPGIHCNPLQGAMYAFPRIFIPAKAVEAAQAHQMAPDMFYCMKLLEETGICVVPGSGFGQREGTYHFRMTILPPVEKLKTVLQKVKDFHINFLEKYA

[25] = biological target: proteins of U3A human fibrosarcoma cells (4462 proteins detected) (Homo sapiens, UniProt Q14161); settings: protein GIT2; soluble abundance after heat, U3A cells
[26] = biological target: proteins of U3A human fibrosarcoma cells (4462 proteins detected) (Homo sapiens, UniProt Q15370); settings: protein TCEB2, U3A cells
proteins of U3A human fibrosarcoma cells (4462 proteins detected) (Homo sapiens, UniProt Q15370), sequence (Q15370 whole entry): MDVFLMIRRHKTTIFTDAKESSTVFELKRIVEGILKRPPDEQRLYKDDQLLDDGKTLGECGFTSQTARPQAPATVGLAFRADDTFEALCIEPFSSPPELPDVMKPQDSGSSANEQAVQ

[27] = biological target: proteins of U3A human fibrosarcoma cells (4462 proteins detected) (Homo sapiens, UniProt Q9NS91); settings: protein RAD18; U3A cells
[28] = biological target: proteins of U3A human fibrosarcoma cells (4462 proteins detected) (Homo sapiens, UniProt Q99633); settings: protein PRPF18; U3A cells
[29] = biological target: proteins of U3A human fibrosarcoma cells (4462 proteins detected) (Homo sapiens, UniProt Q8NDC0); settings: protein MAPK1IP1L; U3A cells

CCc1nc(N)nc(N)c1-c1ccc(Cl)cc1 [pyrimethamine]
Log2 (PYR/DMSO), GOLM1 [1]: -0.22
Log2 (PYR/DMSO) [2]: -0.04
Log2 (PYR/DMSO) [3]: 0.16
Log2 (PYR/DMSO), PHF14 [4]: -0.15
Log2 (PYR/DMSO) [5]: 0.20
Log2 (PYR/DMSO) [6]: -0.04
Log2 (PYR/DMSO) [7]: 0.13
Log2 (PYR/DMSO), CCDC134 [8]: 0.23
Log2 (PYR/DMSO) [9]: 0.18
Log2 (PYR/DMSO) [10]: 0.15
Log2 (PYR/DMSO) [11]: 0.14
Log2 (PYR/DMSO) [12]: 0.18
Log2 (PYR/DMSO) [13]: 0.17
Log2 (PYR/DMSO) [14]: 0.19
Log2 (PYR/DMSO) [15]: 0.15
Log2 (PYR/DMSO) [16]: 0.19
Log2 (PYR/DMSO) [17]: 0.17
Log2 (PYR/DMSO) [18]: 0.16
Log2 (PYR/DMSO), CEP192 [19]: -0.22
Log2 (PYR/DMSO) [20]: 0.14
Log2 (PYR/DMSO) [21]: -0.04
Log2 (PYR/DMSO), SNX16 [22]: -0.18
Log2 (PYR/DMSO) [23]: 0.16
Log2 (PYR/DMSO) [24]: 0.16
Log2 (PYR/DMSO) [25]: 0.14
Log2 (PYR/DMSO) [26]: -0.04
Log2 (PYR/DMSO) [27]: 0.17
Log2 (PYR/DMSO) [28]: 0.16
Log2 (PYR/DMSO) [29]: 0.22
